For data set [1], the system named is Tagia sp. To be noted: chronic/long-term, duration: 56 days.
Data set [2] deals with Folsomia candida. Particulars: chronic/long-term; duration: 28 days; mortality.
The test system of data set [3] is Rattus norvegicus. Particulars: for LD50: acute, mortality.
The subject of data set [4] is Canidae. To be noted: oral, Dog Other, body weight.
In data set [5] the test system is Apis mellifera. Particulars: acute, duration: 48 hours, mortality.
Data set [6] concerns Anas platyrhynchos. Particulars: reproductive.
Data set [7] deals with Plant. To be noted: chronic/long-term; duration: 4 months.
Data set [8] has as its system Daphnia magna. To be noted: chronic/long-term; duration: 21 days; reproduction.
For data set [9], the system named is Oncorhynchus mykiss. Particulars: mortality.
For data set [10], the system named is Typhlodromus pyri. Particulars: acute; mortality.
Data set [11] relates to Colinus virginianus.
The mark [12] stands for this setting: chronic, duration: 2 years, oral, diet, organ weight.
Where [13] appears, read: reproduction developmental, reproduction.
The mark [14] stands for this setting: subchronic, duration: 90 days, oral, diet, F, organ weight.

Results on four compounds are retold here after EPA's ToxValDB 9.5 (doi:10.2903/j.efsa.2017.4981).

“And” between values parts separate entries of the source, which are not always exact repeats. Identical values can stand only once.

`CCOCCN(C(=O)CS(=O)(=O)O)C(=C(C)C)c1ccccc1`: the NOEC was 100 mg/kg in [1] (growth) and 93.3 mg/kg in [2]. In [3] (oral), the LD50 is > 2000 mg/kg-day. For the same compound, the no observed adverse effect level (NOAEL) (as a rule, the highest dose or exposure tested at which no adverse effect was seen) in data set [3] (short-term, duration: 4 weeks, oral, diet) was determined as 410 mg/kg-day.

`CCOCCN(C(C)=O)C(=C(C)C)c1ccccc1`: the NOAEL was 8 mg/kg-day in data set [4] (subchronic, duration: 90 days); 1 mg/kg-day in [3] (setting [12]); 8 mg/kg-day in data set [3] (setting [13]); 8 mg/kg-day in data set [3] (setting [14]). Further, the NOEC stood at 30 mg/kg in data set [1] (growth) and 50 mg/kg in [2].

As for `CC(C)=C(c1ccccc1)N(CC(=O)O)C(=O)CS(=O)(=O)O` [N-(2-Methyl-1-phenylprop-1-en-1-yl)-N-(sulfoacetyl)glycine], the NOEC in data set [1] (growth) is 60 mg/kg; in [2], 100 mg/kg.

Regarding `CCOCCN(C(=O)CCl)C(=C(C)C)c1ccccc1` [Pethoxamid], the no-observed-adverse-effect level (NOAEL) was determined as 2 mg/kg-day in data set [4] (chronic, duration: 1 years); 8 mg/kg-day in data set [4] (subchronic, duration: 90 days); 1 mg/kg-day in data set [3] (setting [12]); 24 mg/kg-day in data set [3] (reproduction developmental, oral, diet, F, reproduction); 8 mg/kg-day in [3] (setting [13]); 8 mg/kg-day in [3] (setting [14]). The LD50 in [5] (dermal) was > 200 µg/piece; in data set [5] (oral, unspecified), > 200 µg/piece; in data set [3] (oral, M) it was 983 mg/kg-day; in [11] (acute, oral, mortality), 872 mg/kg-day. Also, the figures for the NOEL in [6] and in data set [11] (reproduction developmental) were 396 mg/kg-day and 100 mg/kg-day, respectively. Further, the NOAEC in data set [7] came to 8 µg/L. Also, the NOEC was determined as 0.8 mg/kg in data set [1] (reproduction); 2.8 mg/L in data set [8]; 0.0924 mg/L in data set [9] (chronic/long-term, duration: 94 days). In addition, the LC50 (in general, the concentration lethal to half of the exposed cells or organisms) in [9] (acute, duration: 96 hours) is 2.2 mg/L and 2.19 mg/L. Further, the LEC in [10] was ≤ 1200 g/ha.
